Measurements as given in paper PMC6599640 (Pharmaceutical research, 2018).
Like-named read-outs stand apart in the source and are kept apart here.

Legend:
in vitro [1] = conditions: human, Caco-2
[2] = MTT viability assay on SMI microtissues after drug exposure; conditions: human, SMI (small intestinal) microtissues
P-gp = P-gp (Homo sapiens, UniProt P08183); experiment: in vitro
[3] = Drug permeability across SMI microtissues; conditions: human, A-B Papp, Table VIII, 10 μM, 2 h, n = 3
SMI microtissues [4] = experiment: Drug permeability across SMI microtissues; conditions: for Efflux: Table VIII, 10 μM, 2 h
BCRP = BCRP (Homo sapiens, UniProt Q9UNQ0); experiment: in vitro
Caco-2 cell monolayers = conditions: Table VI; 10 μM, 2 h
[5] = cited from earlier work
SMI microtissues [6] = system: SMI microtissues
in vitro [7] = conditions: human

Sequence of BCRP (Q9UNQ0 whole entry): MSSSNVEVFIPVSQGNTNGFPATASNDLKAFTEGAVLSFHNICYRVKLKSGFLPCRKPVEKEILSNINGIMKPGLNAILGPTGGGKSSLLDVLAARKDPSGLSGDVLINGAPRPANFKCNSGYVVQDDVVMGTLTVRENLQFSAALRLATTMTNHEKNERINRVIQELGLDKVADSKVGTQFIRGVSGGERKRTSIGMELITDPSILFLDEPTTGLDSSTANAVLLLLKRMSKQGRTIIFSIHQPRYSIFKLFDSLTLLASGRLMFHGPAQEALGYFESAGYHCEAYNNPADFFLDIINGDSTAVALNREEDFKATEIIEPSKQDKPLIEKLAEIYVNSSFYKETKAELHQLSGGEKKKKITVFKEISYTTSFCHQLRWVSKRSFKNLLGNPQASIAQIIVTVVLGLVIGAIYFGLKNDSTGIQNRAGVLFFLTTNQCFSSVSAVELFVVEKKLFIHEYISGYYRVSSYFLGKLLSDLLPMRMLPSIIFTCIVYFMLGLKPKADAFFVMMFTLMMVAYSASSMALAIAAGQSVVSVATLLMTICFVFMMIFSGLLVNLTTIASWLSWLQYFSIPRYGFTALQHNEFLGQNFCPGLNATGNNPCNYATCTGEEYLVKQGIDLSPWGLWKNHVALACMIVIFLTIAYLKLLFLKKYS
Sequence of P-gp (P08183 whole entry): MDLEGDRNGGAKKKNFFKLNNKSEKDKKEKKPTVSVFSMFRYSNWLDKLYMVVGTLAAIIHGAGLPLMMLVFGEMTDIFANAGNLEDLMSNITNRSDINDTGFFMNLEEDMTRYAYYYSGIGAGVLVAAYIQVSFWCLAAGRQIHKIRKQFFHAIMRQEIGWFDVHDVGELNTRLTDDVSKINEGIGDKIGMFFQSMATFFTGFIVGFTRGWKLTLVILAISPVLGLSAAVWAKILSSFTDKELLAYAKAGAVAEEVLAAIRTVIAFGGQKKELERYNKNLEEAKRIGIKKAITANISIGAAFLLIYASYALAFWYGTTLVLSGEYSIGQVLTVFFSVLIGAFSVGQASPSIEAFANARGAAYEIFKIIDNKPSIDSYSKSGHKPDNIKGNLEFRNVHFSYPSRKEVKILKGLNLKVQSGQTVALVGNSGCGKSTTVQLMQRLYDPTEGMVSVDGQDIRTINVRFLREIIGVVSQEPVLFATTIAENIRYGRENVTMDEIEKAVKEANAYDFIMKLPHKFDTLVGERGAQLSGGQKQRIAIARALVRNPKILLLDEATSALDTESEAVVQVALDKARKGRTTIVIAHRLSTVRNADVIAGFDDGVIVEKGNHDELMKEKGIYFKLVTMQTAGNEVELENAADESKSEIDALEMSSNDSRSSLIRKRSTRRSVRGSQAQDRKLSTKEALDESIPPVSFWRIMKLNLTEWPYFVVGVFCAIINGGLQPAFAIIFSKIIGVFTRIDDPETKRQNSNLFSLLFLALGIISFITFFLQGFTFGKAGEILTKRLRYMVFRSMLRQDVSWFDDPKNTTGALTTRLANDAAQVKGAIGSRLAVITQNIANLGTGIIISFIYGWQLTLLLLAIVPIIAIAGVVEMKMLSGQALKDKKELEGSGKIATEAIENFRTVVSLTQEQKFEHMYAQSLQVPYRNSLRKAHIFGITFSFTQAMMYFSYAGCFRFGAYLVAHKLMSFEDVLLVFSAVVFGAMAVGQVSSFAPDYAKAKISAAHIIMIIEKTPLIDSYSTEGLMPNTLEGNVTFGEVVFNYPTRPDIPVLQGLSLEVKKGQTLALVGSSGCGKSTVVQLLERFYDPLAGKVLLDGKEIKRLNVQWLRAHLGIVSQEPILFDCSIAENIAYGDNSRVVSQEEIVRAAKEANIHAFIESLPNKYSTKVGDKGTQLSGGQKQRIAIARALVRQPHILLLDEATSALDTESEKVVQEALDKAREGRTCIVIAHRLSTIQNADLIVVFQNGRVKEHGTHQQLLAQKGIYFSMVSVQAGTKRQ

CCCC(=O)Nc1ccc(OCC(O)CNC(C)C)c(C(C)=O)c1 (centres unmarked) [Acebutolol]
Papp at 2 h, 10 μM (in vitro [1]): 0.4 ×10⁻⁶ cm/s
viability at 96 h, 1 µM [2]: 98.5%
viability at 96 h, 10 µM [2]: 97.5%

Nc1nc2c(ncn2COCCO)c(=O)[nH]1 [Acyclovir]
Papp at 2 h, 10 μM (in vitro [1]): 0.9 ×10⁻⁶ cm/s
viability at 96 h, 1 µM [2]: 104%
viability at 96 h, 10 µM [2]: 97.6%
viability at 96 h, 100 µM [2]: 91.1%

CN/C(=N/CCSCc1nc[nH]c1C)NC#N [Cimetidine]
Papp at 2 h, 10 μM (in vitro [1]): 2.7 ×10⁻⁶ cm/s
viability at 96 h, 1 µM [2]: 109%
viability at 96 h, 10 µM [2]: 103%
viability at 96 h, 100 µM [2]: 96.1%

C[C@H]1O[C@@H](O[C@H]2[C@@H](O)C[C@H](O[C@H]3[C@@H](O)C[C@H](O[C@H]4CC[C@@]5(C)[C@H](CC[C@@H]6[C@@H]5C[C@@H](O)[C@]5(C)[C@@H](C7=CC(=O)OC7)CC[C@]65O)C4)O[C@@H]3C)O[C@@H]2C)C[C@H](O)[C@@H]1O [Digoxin]
Papp B→A at 2 h, 10 μM (P-gp): 29 ± 5 ×10⁻⁶ cm/s
Papp at 2 h, 10 μM (P-gp): 12.6 ± 0.74 ×10⁻⁶ cm/s
efflux ratio at 2 h, 10 μM (P-gp): 2.3
Papp at 2 h, 10 μM (P-gp; with Verapamil 100 uM): 16 ± 1.75 ×10⁻⁶ cm/s
efflux ratio at 2 h, 10 μM (P-gp; with Verapamil 100 uM): 1.4

CCOC(=O)[C@H](CCc1ccccc1)N[C@@H](C)C(=O)N1CCC[C@H]1C(=O)O [Enalapril]
Papp at 2 h, 10 μM (in vitro [1]): 0.2 ×10⁻⁶ cm/s
viability at 96 h, 1 µM [2]: 109%
viability at 96 h, 10 µM [2]: 105%
viability at 96 h, 100 µM [2]: 99%

CC[C@H]1OC(=O)[C@H](C)[C@@H](O[C@H]2C[C@@](C)(OC)[C@@H](O)[C@H](C)O2)[C@H](C)[C@@H](O[C@@H]2O[C@H](C)C[C@H](N(C)C)[C@H]2O)[C@](C)(O)C[C@@H](C)C(=O)[C@H](C)[C@@H](O)[C@]1(C)O [Erythromycin]
Papp at 2 h, 10 μM (in vitro [1]): 0.2 ×10⁻⁶ cm/s

O=C1NC(c2ccccc2)(c2ccccc2)C(=O)N1COP(=O)(O)O [Fosphenytoin]
Papp A→B at 2 h, 10 μM ([3]; Transport A-B): 12.3 ×10⁻⁶ cm/s
Papp A→B at 2 h, 10 μM ([3]; line Transport B-A): 3.77 ×10⁻⁶ cm/s
Efflux (SMI microtissues [4]): 0.31

CN(C)C(=O)C(CCN1CCC(O)(c2ccc(Cl)cc2)CC1)(c1ccccc1)c1ccccc1 [Loperamide]
efflux ratio at 2 h, 10 μM (P-gp; Efflux ratio, with inhibitor Verapamil 100 uM, substrate 10 μM, 2 hr): 6.5
Papp at 2 h, 10 μM (P-gp; Mean A- > B Papp, No Inhibitor, substrate 10 μM, 2 hr, n = 3): 0.9 ×10⁻⁶ cm/s
Papp B→A at 2 h, 10 μM (P-gp; Mean B- > A Papp, No Inhibitor, substrate 10 μM, 2 hr, n = 3): 15.5 ± 4.6 ×10⁻⁶ cm/s

Cc1ncc2n1-c1ccc(Cl)cc1C(c1ccccc1F)=NC2 [Midazolam]
Papp A→B at 2 h, 10 μM ([3]; Transport A-B): 14.4 ×10⁻⁶ cm/s
Papp A→B at 2 h, 10 μM ([3]; line Transport B-A): 13.7 ×10⁻⁶ cm/s
Efflux (SMI microtissues [4]): 0.95

O=C1CN(/N=C/c2ccc([N+](=O)[O-])o2)C(=O)N1 [Nitrofurantoin]
Papp B→A at 2 h, 10 μM (BCRP): 28.4 ± 3.3 ×10⁻⁶ cm/s
Papp at 2 h, 10 μM (BCRP): 2.7 ± 1.6 ×10⁻⁶ cm/s
Papp B→A at 2 h, 10 μM (BCRP; with Novobiocin 50 uM): 18.9 ± 1 ×10⁻⁶ cm/s
Papp at 2 h, 10 μM (BCRP; with Novobiocin 50 uM): 4.7 ± 0.65 ×10⁻⁶ cm/s

CC(C)NCC(O)COc1cccc2ccccc12 (centres unmarked) [Propranolol]
Caco-2 mean A- > B Papp (Caco-2 cell monolayers): 12.9 10^−6 cm s^−1

C=C[C@H]1C[N@@]2CC[C@H]1C[C@@H]2[C@@H](O)c1ccnc2ccc(OC)cc12 [Quinidine]
Fraction absorbed (%) in humans ([5]; in vivo): 80%
viability at 96 h, 1 µM [2]: 99.4%
viability at 96 h, 10 µM [2]: 100%
viability at 96 h, 100 µM [2]: 99.3%

CNC(=C[N+](=O)[O-])NCCSCc1ccc(CN(C)C)o1 [Ranitidine]
Papp A→B at 2 h, 10 μM (in vitro [1]): 0.2 ×10⁻⁶ cm/s
Papp at 2 h, 10 μM (in vitro [1]): 0.1 ×10⁻⁶ cm/s
Fraction absorbed in humans (class) ([5]; Table IX, class in brackets, no reference given): Moderate
viability at 96 h, 1 µM [2]: 102%
viability at 96 h, 10 µM [2]: 98.1%
viability at 96 h, 100 µM [2]: 96%
Papp A- > B SMI microtissues (SMI microtissues [4]; Table V, mean of n = 2 SMI microtissue lots): 2.2 ± 0.5 10^−6 cm^s−1

CC(C)c1nc(N(C)S(C)(=O)=O)nc(-c2ccc(F)cc2)c1/C=C/[C@@H](O)C[C@@H](O)CC(=O)O [Rosuvastatin]
Papp B→A at 2 h, 10 μM (P-gp): 9.4 ± 1 ×10⁻⁶ cm/s
Papp at 2 h, 10 μM (P-gp): 0.5 ± 0.07 ×10⁻⁶ cm/s
Papp B→A at 2 h, 10 μM (P-gp; with Elacider 100 uM): 5.3 ± 0.3 ×10⁻⁶ cm/s

CC(=O)CC(c1ccccc1)c1c(O)c2ccccc2oc1=O (centres unmarked) [Warfarin]
Papp A- > B SMI microtissues (SMI microtissues [6]): 22.3 ± 0.5 10^−6 cm^s−1
Papp at 2 h, 10 μM (in vitro [7]; Lot #1 Mean A- > B Papp): 48.5 ± 8.18 ×10⁻⁶ cm/s
Papp at 2 h, 10 μM (in vitro [7]; Lot #2 Mean A- > B Papp): 24.3 ± 0.86 ×10⁻⁶ cm/s
Papp at 2 h, 10 μM (in vitro [7]; Lot #3 Mean A- > B Papp): 19.9 ± 3.45 ×10⁻⁶ cm/s
Papp at 2 h, 10 μM (in vitro [7]; SMI mean A- > B Papp): 36.7 ± 16.8 ×10⁻⁶ cm/s
Papp A→B at 2 h, 10 μM (in vitro [1]): 27.8 ± 7.6 ×10⁻⁶ cm/s
Papp at 2 h, 10 μM (in vitro [1]): 28.6 ×10⁻⁶ cm/s
